Assay results from patent publication US11013249B2, “Compositions for controlled release of volatile compounds” (University of Guelph, priority 2016, dated 2021).
≈ marks a conversion by molar mass, not a printed value.

Assays:
[1] = test system: Mould; assay: Inhibitory effects of AITC, diacetyl and cinnamaldehyde vapour; type: cell-based, mould isolated from mung bean sprouts; settings: 25° C.
Description: (§1) P. fluorescens was selected as a model spoilage bacteria, while mould and yeast were isolated from spoiled mung bean sprouts with bacteria excluded by cultivating in potato dextrose broth (PDB) (Sigma, Oakville, ON, Canada) at pH 5.6±0.2. Yeast and P. fluorescens stocks were cultivated in PDB and trypticase soy broth (TSB) (Bacto, BD, Sparks, USA), respectively, at 30° C. for 24 h and diluted with sterile saline solution (NaCl, 8.5 g/L water) to a concentration of 10^6 CFU/mL. An aliquot of 50 μL of the prepared yeast or bacteria suspension was spread on potato dextrose agar (PDA) (Difco, BD, Sparks, USA) or trypticase soy agar (TSA) (Bacto, BD, Sparks, USA), respectively, in 5 cm diameter petri dishes (Fisher Scientific, Ottawa, ON, Canada). Mycelium of mould was inoculated as one spot at the center of the PDA dishes. Two freshly inoculated petri dishes of same microorganism, with their lids removed, were placed in a one-liter glass jar. […] The growth of the microorganisms was monitored by the colony formation for 3 days.

[2] = test system: Yeast; assay: as above; type: cell-based, yeast isolated from mung bean sprouts
Description: as §1

[3] = test system: P. Fluorescens; assay: as above; type: cell-based, Pseudomonas fluorescens P33; settings: 25° C.
Description: as §1

[4] = test system: P. aphanidermatum; assay: Antimicrobial efficacy of pure CA and PLA-PEO-CA nonwoven; type: cell-based, Pythium aphanidermatum; settings: 25° C.
Description: (§2) The antimicrobial activity of PLA-PEO-CA nonwoven was tested on two spoilage microorganisms, P. fluorescens and P. aphanidermatum. One of each freshly inoculated P. fluorescens and P. aphanidermatum petri dishes, with the lid removed, were placed in a one-liter glass jar. A piece of PLA-PEO-CA nonwoven or a certain amount of liquid CA was placed in the middle of the jar without touching the petri dishes and the lid was closed immediately. The jar was incubated at 25° C. The growth of the microorganisms was monitored every 24 h for 4 d.

[5] = test system: P. Fluorescens; assay: as above; type: cell-based, Pseudomonas fluorescens; settings: 25° C.
Description: as §2

[6] = 25° C.; cited from earlier work
[7] = Amount 2 mg in one-liter jar, 25° C.
[8] = Amount 5 mg in one-liter jar, 25° C.
[9] = Amount 10 mg in one-liter jar, 25° C.
[10] = Amount 20 mg in one-liter jar, 25° C.

Structure (SMILES): O=CC=Cc1ccccc1 [Cinnamaldehyde]
- Mould day1, visual colony number ([1]; Amount 2 mg in one-liter jar): ++ (15-50)
- Mould day2, visual colony number ([1]; Amount 2 mg in one-liter jar): ++ (15-50)
- Mould day3, visual colony number ([1]; Amount 2 mg in one-liter jar): ++ (15-50)
- Mould day1, visual colony number ([1]; Amount 5 mg in one-liter jar): + (less than 15)
- Mould day2, visual colony number ([1]; Amount 5 mg in one-liter jar): + (less than 15)
- Mould day3, visual colony number ([1]; Amount 5 mg in one-liter jar): + (less than 15)
- Mould day1, visual colony number ([1]; Amount 10 mg in one-liter jar): + (less than 15)
- Mould day2, visual colony number ([1]; Amount 10 mg in one-liter jar): + (less than 15)
- Mould day3, visual colony number ([1]; Amount 10 mg in one-liter jar): + (less than 15)
- Mould day1, visual colony number ([1]; Amount 20 mg in one-liter jar): + (less than 15)
- Mould day2, visual colony number ([1]; Amount 20 mg in one-liter jar): + (less than 15)
- Mould day3, visual colony number ([1]; Amount 20 mg in one-liter jar): + (less than 15)
- concentration that inhibited the growth of mould for three days ([1]; vapour in one-liter jar): 30 mg/L
- Yeast day1, visual colony number [2, 7]: + (less than 15)
- Yeast day2, visual colony number [2, 7]: + (less than 15)
- Yeast day3, visual colony number [2, 7]: ++ (15-50)
- Yeast day1, visual colony number [2, 8]: + (less than 15)
- Yeast day2, visual colony number [2, 8]: + (less than 15)
- Yeast day3, visual colony number [2, 8]: + (less than 15)
- Yeast day1, visual colony number [2, 9]: + (less than 15)
- Yeast day2, visual colony number [2, 9]: + (less than 15)
- Yeast day3, visual colony number [2, 9]: + (less than 15)
- Yeast day1, visual colony number [2, 10]: + (less than 15)
- Yeast day2, visual colony number [2, 10]: + (less than 15)
- Yeast day3, visual colony number [2, 10]: + (less than 15)
- MIC ([2]; established on yeast, mould and P. fluorescens from Table 8, read-out: minimum inhibition concentration (MIC)): 30 µg/mL (≈ 227 µM)
- effective concentration against yeast ([2]; vapour in one-liter jar, 25° C.): 30 mg/L
- P. Fluorescens day1, visual colony number ([3]; Amount 2 mg in one-liter jar): +++ (50-150)
- P. Fluorescens day2, visual colony number ([3]; Amount 2 mg in one-liter jar): +++ (50-150)
- P. Fluorescens day1, visual colony number ([3]; Amount 5 mg in one-liter jar): ++ (15-50)
- P. Fluorescens day2, visual colony number ([3]; Amount 5 mg in one-liter jar): ++ (15-50)
- P. Fluorescens day1, visual colony number ([3]; Amount 10 mg in one-liter jar): + (less than 15)
- P. Fluorescens day2, visual colony number ([3]; Amount 10 mg in one-liter jar): + (less than 15)
- P. Fluorescens day1, visual colony number ([3]; Amount 20 mg in one-liter jar): + (less than 15)
- P. Fluorescens day2, visual colony number ([3]; Amount 20 mg in one-liter jar): + (less than 15)
- effective concentration against P. fluorescens ([3]; vapour in one-liter jar): 30 mg/L
- P. aphanidermatum Day 1, colony diameter ([4]; 2 mg liquid CA in 1 L jar): 1.3 mm
- P. aphanidermatum Day 2, colony diameter ([4]; 2 mg liquid CA in 1 L jar): 2.8 mm
- P. aphanidermatum Day 3, colony diameter ([4]; 2 mg liquid CA in 1 L jar): 4 mm
- P. aphanidermatum Day 4, colony diameter ([4]; 2 mg liquid CA in 1 L jar): 5 mm
- P. aphanidermatum Day 1, colony diameter ([4]; 5 mg liquid CA in 1 L jar): 1 mm
- P. aphanidermatum Day 2, colony diameter ([4]; 5 mg liquid CA in 1 L jar): 2.1 mm
- P. aphanidermatum Day 3, colony diameter ([4]; 5 mg liquid CA in 1 L jar): 2.8 mm
- P. aphanidermatum Day 4, colony diameter ([4]; 5 mg liquid CA in 1 L jar): 3.5 mm
- P. aphanidermatum Day 1, colony diameter ([4]; 10 mg liquid CA in 1 L jar): 0.8 mm
- P. aphanidermatum Day 2, colony diameter ([4]; 10 mg liquid CA in 1 L jar): 1.6 mm
- P. aphanidermatum Day 3, colony diameter ([4]; 10 mg liquid CA in 1 L jar): 2.2 mm
- P. aphanidermatum Day 4, colony diameter ([4]; 10 mg liquid CA in 1 L jar): 2.7 mm
- P. aphanidermatum Day 1, colony diameter ([4]; 30 mg liquid CA in 1 L jar): 0.7 mm
- P. aphanidermatum Day 2, colony diameter ([4]; 30 mg liquid CA in 1 L jar): 1.4 mm
- P. aphanidermatum Day 3, colony diameter ([4]; 30 mg liquid CA in 1 L jar): 1.8 mm
- P. aphanidermatum Day 4, colony diameter ([4]; 30 mg liquid CA in 1 L jar): 2 mm
- P. Fluorescens Day 1, visual colony number ([5]; 2 mg liquid CA in 1 L jar): ++ (15-50)
- P. Fluorescens Day 2, visual colony number ([5]; 2 mg liquid CA in 1 L jar): ++++ (more than 150)
- P. Fluorescens Day 3, visual colony number ([5]; 2 mg liquid CA in 1 L jar): ++++ (more than 150)
- P. Fluorescens Day 4, visual colony number ([5]; 2 mg liquid CA in 1 L jar): ++++ (more than 150)
- P. Fluorescens Day 1, visual colony number ([5]; 5 mg liquid CA in 1 L jar): ++ (15-50)
- P. Fluorescens Day 2, visual colony number ([5]; 5 mg liquid CA in 1 L jar): ++++ (more than 150)
- P. Fluorescens Day 3, visual colony number ([5]; 5 mg liquid CA in 1 L jar): ++++ (more than 150)
- P. Fluorescens Day 4, visual colony number ([5]; 5 mg liquid CA in 1 L jar): ++++ (more than 150)
- P. Fluorescens Day 1, visual colony number ([5]; 10 mg liquid CA in 1 L jar): + (less than 15)
- P. Fluorescens Day 2, visual colony number ([5]; 10 mg liquid CA in 1 L jar): +++ (50-150)
- P. Fluorescens Day 3, visual colony number ([5]; 10 mg liquid CA in 1 L jar): +++ (50-150)
- P. Fluorescens Day 4, visual colony number ([5]; 10 mg liquid CA in 1 L jar): +++ (50-150)
- P. Fluorescens Day 2, visual colony number ([5]; 30 mg liquid CA in 1 L jar): + (less than 15)
- P. Fluorescens Day 3, visual colony number ([5]; 30 mg liquid CA in 1 L jar): + (less than 15)
- P. Fluorescens Day 4, visual colony number ([5]; 30 mg liquid CA in 1 L jar): + (less than 15)

Structure (SMILES): O=C(O)C=Cc1ccccc1 [cinnamic acid]
- vapor pressure [6]: 0.0047 mm Hg

Structure (SMILES): Cc1ccc(C(C)C)c(O)c1 [thymol, Thymol]
- vapor pressure [6]: 0.0054 kPa
